Data published in US20230053540A1, “TREATMENT OF LIVER INJURY” (Massachusetts Institute of Technology, priority 2019, published 2023).

Tested on: hepatocytes
Assay: Seq-Well scRNA-Seq of hepatocytes after APAP overdose (signature scores, DEG vs untreated)
Format: in vivo, mouse
Details: APAP vs UT

## CC(=O)Nc1ccc(O)cc1 [APAP, acetaminophen]
  Ndufb4 logFC: −0.4537
  Ndufb6 logFC: −0.5077
  Ndufb9 logFC: −0.5038
  Ndufb11 logFC: −0.5097
  Ndufs6 logFC: −0.5379
  Nedd4 logFC: 0.3774
  Nit2 logFC: −0.4859
  Nolc1 logFC: 0.4722
  Nop56 logFC: 0.2657
  Nr5a2 logFC: 0.322
  Nrp1 logFC: 0.3608
  Oaz1 logFC: −0.4185
  Orm2 logFC: 0.2715
  Pah logFC: −0.5221
  Park7 logFC: −0.2602
  Pdcd4 logFC: 0.4882
  Pdia4 logFC: 0.4882
  Pdia6 logFC: −0.39
  Pemt logFC: −0.5512
  Pfkfb2 logFC: 0.29
  Picalm logFC: 0.7545
  Pik3c2a logFC: 0.3249
  Plec logFC: 0.4675
  Plg logFC: 0.2617
  Ppan logFC: 0.2724
  Ppib logFC: −0.5897
  Ppm1k logFC: −0.5584
  Ppp1r3b logFC: −0.4027
  Ppp2r5a logFC: −0.2605
  Prg4 logFC: 0.4306
  Prkd3 logFC: 0.3665
  Pten logFC: 0.3559
  Ptms logFC: 0.2678
  Ptpn1 logFC: 0.4163
  Ptpn12 logFC: 0.3342
  Qdpr logFC: −0.5236
  Qsox1 logFC: 0.3424
  Rab1 logFC: 0.3526
  Rad54l2 logFC: 0.3887
  Ranbp2 logFC: 0.5985
  Rarres2 logFC: −0.5522
  Rdh16 logFC: 0.2692
  Rgs2 logFC: 0.3957
  Rnd3 logFC: 0.3655
  Rock2 logFC: 0.5941
  Rora logFC: 0.6444
  Rpl32 logFC: −0.5322
  Rpl36a1 logFC: −0.4755
  Rplp1 logFC: −0.5047
  Rpn1 logFC: 0.4124
  Rps2 logFC: −0.3879
  Rrbp1 logFC: 0.3069
  S100a1 logFC: −0.3762
  Saa4 logFC: −0.571
  Sar1b logFC: −0.3176
  Sat1 logFC: 0.6887
  Sc5d logFC: −0.5009
  Sdad1 logFC: 0.3124
  Sdc3 logFC: 0.3598
  Sdc4 logFC: 0.6196
  Sdhd logFC: −0.3353
  Sds logFC: −0.407
  Sec61a1 logFC: 0.3139
  Selenbp1 logFC: −0.4937
  Serp1 logFC: 0.3124
  Serpina3c logFC: −0.4725
  Sfxn1 logFC: 0.3049
  Slc2a2 logFC: −0.3123
  Slc3a1 logFC: 0.341
  Slc10a2 logFC: 0.299
  Slc20a1 logFC: 0.3572
  Slc37a4 logFC: 0.2683
  Slc38a3 logFC: −0.4098
  Slc38a4 logFC: 0.2637
  Slco1a1 logFC: −0.3628
  Son logFC: 0.5429
  Sorl1 logFC: 0.3067
  Sparcl1 logFC: −0.2536
  Spcs3 logFC: 0.3942
  Spred1 logFC: 0.3884
  Sqstm1 logFC: 0.7432
  Ssr1 logFC: 0.3278
  Ssr4 logFC: −0.5076
  St3gal1 logFC: 0.5287
  Stard4 logFC: 0.3515
  Stard10 logFC: −0.3383
  Stat3 logFC: 0.7154
  Stk40 logFC: 0.5364
  Tacc2 logFC: 0.3293
  Tatdn2 logFC: 0.3733
  Tbc1d15 logFC: 0.4886
  Tcerg1 logFC: 0.3575
  Thrsp logFC: −0.725
  Tiparp logFC: 0.5456
  Tjp2 logFC: 0.4115
  Tlcd2 logFC: −0.5945
  Tm4sf4 logFC: 0.5126
  Tmed7 logFC: 0.3868
  Tmem30a logFC: 0.3328
  Tmem87b logFC: 0.4344
  Tmem106b logFC: 0.2802
  Tmem256 logFC: −0.5185
  Tnfrsf1a logFC: 0.5996
  Tra2a logFC: 0.7123
  Tram1 logFC: 0.4111
  Trip12 logFC: 0.3283
  Tsc22d2 logFC: 0.3911
  Tsku logFC: 0.3676
  Tsr1 logFC: 0.3603
  Ttc39c logFC: −0.6363
  Tubb2a logFC: 0.7494
  Ubxn4 logFC: 0.2503
  Ucp2 logFC: 0.2612
  Ugdh logFC: 0.6331
  Uggt1 logFC: 0.2845
  Ugt2a3 logFC: −0.3334
  Uox logFC: −0.5531
  Upb1 logFC: −0.4187
  Upp2 logFC: −0.6903
  Uqcr10 logFC: −0.4519
  Uqcr11 logFC: −0.6031
  Uqcrh logFC: −0.4292
  Usmg5 logFC: −0.4305
  Uso1 logFC: 0.3881
  Usp4 logFC: 0.3247
  Usp9x logFC: 0.4076
  Vkorc1 logFC: −0.4042
  Vsig4 logFC: 0.4833
  Wfdc17 logFC: 0.4867
  Xbp1 logFC: 0.6032
  Ywhag logFC: 0.5824
  Zfp683 logFC: −0.4217
  mmu-mir-6236 logFC: 0.7875
  mt-Atp6 logFC: −0.5737
  mt-Nd6 logFC: −0.4779
  mt-Tm logFC: 0.2847
  mt-Tq logFC: 0.2879
Composite DEG
  15-Sep logFC: −0.4092
  0610005C13Rik logFC: −0.4251
  0610011F06Rik logFC: −0.3037
  1100001G20Rik logFC: −0.8516
  1110001J03Rik logFC: −0.4328
  1500011K16Rik logFC: −0.3296
  1500017E21Rik logFC: −0.461
  1700017B05Rik logFC: 0.3307
  1810022K09Rik logFC: −0.3001
  2010003K11Rik logFC: 0.5884
  2010107E04Rik logFC: −0.3182
  2410015M20Rik logFC: −0.4021
  2810007J24Rik logFC: −0.9143
  AW112010 logFC: −0.2981
  Aadat logFC: −0.3186
  Aass logFC: 0.4775
  Abca6 logFC: 0.3328
  Abcb4 logFC: 0.4947
  Abcc3 logFC: 0.3638
  Abcd2 logFC: 0.2851
  Abcd3 logFC: −0.2718
  Abhd14b logFC: −0.3937
  Acad11 logFC: 0.3571
  Acadl logFC: 0.3162
  Acads logFC: −0.3242
  Acat1 logFC: 0.3689
  Acbd5 logFC: −0.3952
  Acly logFC: 0.3288
  Aco2 logFC: 0.2859
  Acot1 logFC: 0.3078
  Acot12 logFC: 0.3078
  Acsl1 logFC: −0.3703
  Acsm1 logFC: −0.3692
  Actb logFC: 1.06
  Actn4 logFC: 0.3124
  Acy3 logFC: −0.3137
  Adamts1 logFC: 0.2826
  Adck3 logFC: −0.8761
  Adh1 logFC: −1.255
  Adtrp logFC: −0.3664
  Aff4 logFC: 0.6163
  Agpat2 logFC: −0.2982
  Agpat6 logFC: 0.3963
  Agpat9 logFC: 0.327
  Agxt logFC: −0.2584
  Ahcy logFC: −0.563
  Ak2 logFC: −0.3451
  Akap11 logFC: 0.3464
  Akap13 logFC: 0.4953
  Akr1a1 logFC: −0.3269
  Akr1c19 logFC: −0.2727
  Akr1d1 logFC: 0.361
  Alad logFC: −0.4206
  Aldh4a1 logFC: −0.2907
  Aldh9a1 logFC: 0.4159
  Aldob logFC: 0.3655
  Amacr logFC: −0.4136
  Amy1 logFC: 0.4327
  Anapc13 logFC: −0.3642
  Ankrd11 logFC: 0.4156
  Anp32a logFC: −0.317
  Apc logFC: 0.6067
  Apcs logFC: 0.7584
  Aplp2 logFC: 0.3394
  Apoa4 logFC: 1.368
